Laboratory results as given in PMC8348110, “A Novel Peptide Derived from the Transmembrane Domain of Romo1 Is a Promising Candidate for Sepsis Treatment and Multidrug-Resistant Bacteria” (International Journal of Molecular Sciences, 2021).
In brackets after ≈: the same amount, converted by molar mass. Residues, ends and D or L forms follow the SMILES beside them.

Experiments:
[1] = system: Pseudomonas aeruginosa ATCC 27853; format: cell-based
Summary of the method: (§1)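 Steps: grow cells to mid-log; dilute to 5 × 10^5 CFU/mL in 10 mM sodium phosphate, pH 7.4, with 1% TS broth; add peptide (two-fold dilutions starting at 64 μg/mL) for 1 h; spread onto TS agar, 37 °C overnight; score the lowest colony-free concentration.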

[2] = system: Staphylococcus aureus ATCC 29213; format: cell-based
Summary of the method: as §1

[3] = system: Streptococcus pneumoniae NCCP 14585; format: cell-based; details: NCCP 14585, 1 h
Summary of the method: as §1

[4] = system: Methicillin-resistant S. aureus (MRSA) ATCC 33591; format: cell-based, Staphylococcus aureus; details: Table 2; ATCC 33591; modified MBC
Summary of the method: as §1

[5] = system: Vancomycin-resistant S. aureus NCCP 15872; format: cell-based, Staphylococcus aureus; details: Vancomycin-resistant NCCP 15872, 1 h
Summary of the method: as §1

[6] = system: Carbapenem-resistant P. aeruginosa (CRPA), clinical isolate; format: cell-based, Pseudomonas aeruginosa; details: 1 h
Summary of the method: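 Mid-log clinical isolates diluted to 5 × 10^5 CFU/mL in 10 mM sodium phosphate (pH 7.4) with 1% TS broth, exposed 1 h to peptides two-fold diluted from 64 μg/mL, then plated on TS agar overnight at 37 °C. MBC is the lowest concentration with no colonies.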

[7] = system: Acinetobacter baumannii ATCC 19606; test: Modified MBC determination; format: cell-based; details: Table 2
Experimental: (§2) The minimum bactericidal concentration (MBC) was determined as previously described with minor modifications. Briefly, bacteria were cultured in the mid-log phase and diluted to 5 × 10^5 colony-forming unit (CFU)/mL in 10 mM sodium phosphate buffer (pH 7.4) with a 1% volume of TS broth. They were incubated for 1 h with various peptides which were two-fold diluted serially from 64 μg/mL to 0 μg/mL concentrations in a 96-well plate. The samples were inoculated TS agar plate and incubated overnight at 37 °C. The value of MBC was determined at the lowest concentrations at which no colonies were identified.
(§3) We used the CFU counting method to measure antibacterial activity, with all bacteria cultured to the mid-log phase in an appropriate broth medium. Bacterial CFUs were counted after overnight culture at 37 °C on TS or LB agar plates. The MBC value and antibacterial activity in blood components were determined as previously described. Mouse and human whole blood were collected and diluted with PBS (pH 7.4) to measure the ex vivo antibacterial activity of AMPR-22. For that test, AMPR-22 (10 μg) was added to each whole blood solution and incubated at 37 °C with shaking at 200 rpm. At each time point, it was incubated with bacteria (1 × 10^3 CFU) for 30 min. Each sample was inoculated on an LB agar plate, and CFU counting was performed. To measure the in vivo activity of AMPR-22, 1 × 10^8 CFU of bacteria were injected into BALB/c mice, and an hour later, 10 mg/kg of the test peptides were injected. Blood samples were collected by tail cut, serially diluted with PBS (pH 7.4), and inoculated on LB-agar plates, followed by CFU counting. To estimate the functional half-life of AMPR-22, 40 mg/kg of each tested peptide were injected into mice. Whole blood sampling was performed by cardiac puncture, and the plasma was isolated by centrifugation (2000× g, 15 min). The isolated plasma was incubated with bacteria (1 × 10^3 CFU) for an hour, and then the CFU counting method was performed.

[8] = system: Bacillus subtilis ATCC 6633; test: Modified MBC determination; format: cell-based; details: Table 2
Experimental: as §2, §3

[9] = system: Enterobacter aerogenes ATCC 13048; test: Modified MBC determination; format: cell-based; details: Table 2
Experimental: as §2, §3

[10] = system: Enterococcus faecalis ATCC 19433; test: Modified MBC determination; format: cell-based; details: Table 2
Experimental: as §2, §3

[11] = system: Enterococcus faecium ATCC 19434; test: Modified MBC determination; format: cell-based; details: Table 2
Experimental: as §2, §3

[12] = system: Escherichia coli ATCC 25922; test: Modified MBC determination; format: cell-based; details: Table 2
Experimental: as §2, §3

[13] = system: Klebsiella pneumoniae ATCC 13883; test: Modified MBC determination; format: cell-based; details: Table 2
Experimental: as §2, §3

[14] = system: Streptomyces sindenensis ATCC 23963; test: Modified MBC determination; format: cell-based; details: Table 2
Experimental: as §2, §3

[15] = system: Carbapenem-resistant A. baumannii, clinical isolate; format: cell-based, Acinetobacter baumannii; details: 1 h
Description: (§4) Acinetobacter baumannii (ATCC 19606), B. subtilis (ATCC 6633), E. aerogenes (ATCC 13048), E. coli (ATCC 25922), E. faecalis (ATCC 19433), E. faecium (ATCC 19434), K. pneumoniae (ATCC 13883), P. aeruginosa (ATCC 27853), S. aureus (ATCC 29213), S. sindenensis (ATCC 23963), and MRSA (ATCC 33591) were purchased from the American Type Culture Collection (ATCC; Gaithersburg, MD, USA). Streptococcus pneumoniae (NCCP 14585), vancomycin-resistant E. faecium (NCCP 11522), and vancomycin-resistant S. aureus (NCCP 15872) were purchased from the National Culture Collection for Pathogens (NCCP; Cheongju, Korea). The isolation and use of carbapenem-resistant bacterial strains from a patient were approved (2015AN0129) by the Institutional Review Board (IRB) of Korea University Hospital. […]
(§5) The minimum bactericidal concentration (MBC) was determined as previously described with minor modifications. […] The value of MBC was determined at the lowest concentrations at which no colonies were identified.
(§6) We used the CFU counting method to measure antibacterial activity, with all bacteria cultured to the mid-log phase in an appropriate broth medium. Bacterial CFUs were counted after overnight culture at 37 °C on TS or LB agar plates. The MBC value and antibacterial activity in blood components were determined as previously described. […]

[16] = system: Carbapenem-resistant K. pneumoniae, clinical isolate; format: cell-based, Klebsiella pneumoniae; details: 1 h
Description: as §4, §5, §6

[17] = system: Vancomycin-resistant E. faecium NCCP 11522; format: cell-based, Enterococcus faecium; details: Vancomycin-resistant NCCP 11522, 1 h
Experimental: as §2
We used the CFU counting method to measure antibacterial activity, with all bacteria cultured to the mid-log phase in an appropriate broth medium. Bacterial CFUs were counted after overnight culture at 37 °C on TS or LB agar plates. The MBC value and antibacterial activity in blood components were determined as previously described. Mouse and human whole blood were collected and diluted with PBS (pH 7.4) to measure the ex vivo antibacterial activity of AMPR-22. For that test, AMPR-22 (10 μg) was added to each whole blood solution and incubated at 37 °C with shaking at 200 rpm. At each time point, it was incubated with bacteria (1 × 10^3 CFU) for 30 min. Each sample was inoculated on an LB agar plate, and CFU counting was performed. […]

human erythrocytes = test: Hemolysis assay; format: cell-based; details: 2% erythrocytes in PBS, 1 h 37 °C, absorbance 550 nm; up to / at 256 µg/mL
Experimental: For the hemolytic assay, mouse and human whole blood was diluted with PBS (pH 7.4) and centrifuged for 10 min at 500× g. After removing the supernatant and rinsing the pellet three times with PBS, we resuspended the erythrocytes in PBS at 2% volume. The blood solution was added to the solution of peptides with two-fold serial dilution on a 96-well plate. After incubation for an hour at 37 °C, the plate was centrifuged at 2500× g for 10 min, and the absorbance of the supernatant was measured at 550 nm. The PBS-treated sample was the negative control, and the 0.1% Triton X-100–treated sample was the positive control. To measure white blood cell toxicity, mouse and human PBMCs were freshly isolated as previously described, and 70% ethanol (positive control) or AMPR-22 was administered using two-fold diluted concentrations (0 to 256 μg/mL) for 30 min. To measure cell death, a LIVE/DEAD® fixable green dead cell stain kit (Thermo Fisher Scientific, Waltham, MS, USA) was used following the manufacturer′s instructions, and flow cytometry was performed using a FACS Canto II (BD Biosciences, CA, USA). The toxicity of AMPR-22 was compared with negative (PBS-treated) and positive controls, and the data were analyzed using FlowJo software (Tree Star, OR, USA).

CC[C@H](C)[C@H](NC(=O)CNC(=O)[C@H](CCSC)NC(=O)CNC(=O)[C@@H](NC(=O)[C@H](C)NC(=O)[C@H](CCSC)NC(=O)[C@H](Cc1ccccc1)NC(=O)[C@@H](NC(=O)CNC(=O)[C@H](Cc1ccccc1)NC(=O)[C@H](CCCCN)NC(=O)CNC(=O)CNC(=O)[C@H](CCCCN)NC(=O)[C@H](CCCCN)NC(=O)[C@H](CCSC)NC(=O)[C@H](CCSC)NC(=O)[C@H](CCCCN)NC(=O)[C@@H](N)CCCCN)[C@@H](C)O)[C@@H](C)CC)C(=O)N[C@@H](CCCNC(=N)N)C(=O)O [AMPR-21] (H-KKMMKKGGKFGTFMAIGMGIR-OH)
MBC Value, P. aeruginosa ([1]; ATCC 27853, 1 h): 4 µg/mL (≈ 1.73 µM)
MBC Value, Pseudomonas aeruginosa ([1]; Table 2, ATCC 27853, modified MBC): 4 µg/mL (≈ 1.73 µM)
MBC Value, S. aureus ([2]; ATCC 29213, 1 h, pH 7.4): 8 µg/mL (≈ 3.45 µM)
MBC Value, Staphylococcus aureus ([2]; Table 2, ATCC 29213, modified MBC): 4 µg/mL (≈ 1.73 µM)
MBC Value, Streptococcus pneumoniae [3]: 8 µg/mL (≈ 3.45 µM)
MBC Value, Methicillin-resistant S. aureus [4]: 8 µg/mL (≈ 3.45 µM)
MBC Value, Vancomycin-resistant S. aureus [5]: 8 µg/mL (≈ 3.45 µM)
MBC Value, CRPA [6]: 4 µg/mL (≈ 1.73 µM)
MBC Value, Carbapenem-resistant P. aeruginosa [6]: 4 µg/mL (≈ 1.73 µM)
MBC Value, Acinetobacter baumannii [7]: 4 µg/mL (≈ 1.73 µM)
MBC Value, Bacillus subtilis [8]: 2 µg/mL (≈ 0.863 µM)
MBC Value, Enterobacter aerogenes [9]: 4 µg/mL (≈ 1.73 µM)
MBC Value, Enterococcus faecalis [10]: 8 µg/mL (≈ 3.45 µM)
MBC Value, Enterococcus faecium [11]: 8 µg/mL (≈ 3.45 µM)
MBC Value, Escherichia coli [12]: 4 µg/mL (≈ 1.73 µM)
MBC Value, Klebsiella pneumoniae [13]: 4 µg/mL (≈ 1.73 µM)
MBC Value, Streptomyces sindenensis [14]: 4 µg/mL (≈ 1.73 µM)
MBC Value, Carbapenem-resistant A. baumannii [15]: 2 µg/mL (≈ 0.863 µM)
MBC Value, Carbapenem-resistant K. pneumoniae [16]: 8 µg/mL (≈ 3.45 µM)
MBC Value, Vancomycin-resistant E. faecium [17]: 8 µg/mL (≈ 3.45 µM)
Hemolytic activity against human erythrocytes (human erythrocytes): negligible hemolytic activity
